One assay addresses T1, humanY2 (Homo sapiens, UniProt P49146).
T1 construct: endoge- nously expressing Y1 and Y2 receptors; endogenous in cells; host or cells: SMS-KAN (neuroblastoma) cells
T1 sequence (P49146 1-381): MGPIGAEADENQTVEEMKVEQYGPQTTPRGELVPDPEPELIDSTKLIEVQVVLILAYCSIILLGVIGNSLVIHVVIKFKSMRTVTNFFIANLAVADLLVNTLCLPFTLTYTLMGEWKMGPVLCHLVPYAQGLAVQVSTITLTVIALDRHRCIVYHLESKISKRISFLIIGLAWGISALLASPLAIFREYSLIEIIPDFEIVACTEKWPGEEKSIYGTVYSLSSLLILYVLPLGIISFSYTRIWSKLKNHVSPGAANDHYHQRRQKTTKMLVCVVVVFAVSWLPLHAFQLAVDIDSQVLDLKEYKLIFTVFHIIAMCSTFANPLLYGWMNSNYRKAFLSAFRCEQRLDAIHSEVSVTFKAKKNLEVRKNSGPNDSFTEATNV
Nature of the assay: Receptor binding, SMS-KAN cells (Y2). To be noted: read-out: Affinity IC50, humanY2/SMS-KAN. The procedure:
SMS-KAN (neuroblastoma) cells: Cells were grown and receptor binding assay performed analogously as described hereinbefore under A and by Wieland et al. in Peptides 16, 1389-1394 (1995).

A further assay addresses T2, human Y2 receptor (Homo sapiens, UniProt P49146).
T2 construct: expressed in transfected cells; host or cells: BHK
T2 sequence (P49146 1-381): T1 sequence (P49146 1-381)
Briefly: Receptor binding, BHK cells stably expressing the human Y2 receptor. To be noted: read-out: Affinity IC50, humanY2/BHK. How it is done: BHK cells stably expressing the human Y1 receptor: Cells were grown in DMEM with 4.5 g/l glucose, 10% FCS, 1% PENStrep, 1 mg/ml G-418, 1 mg/ml hygromycin B. 96h before receptor binding assay 1mM IPTG was added in order to induce expression. Confluent cells were removed with 0.06% EDTA/PBS (1 min incubation) and resuspended in 15 ml incubation buffer (MEM/25 mM HEPES +1% BSA, […], 0.1% bacitracin, 3.75 mM CaCl2). After 10 min centrifugation at RT (150×g), the pellet was resuspended in 50 ml incubation buffer, respun and resuspended in 30 ml incubation buffer. After counting, the cells were diluted to a final concentration of 2.5×10^5 cells/ml. Two hundred microliters of this cell suspension was incubated 3 h at RT with 30 pM [^125 I]NPY and increasing concentrations of test compounds in a total volume of […]. The incubation was stopped by 10 min centrifugation, 3000×g at 4° C. The pellet was resuspended with 0.25 ml PBS recentrifuged and the pellet measured in a γ-counter.
BHK cells stably expressing the human Y2 receptor: Assay was performed essentially as described for human Y1 expressing BHK cells.

For the next assay, the target named is T3, rat Y4 receptor (Rattus norvegicus, UniProt Q63447).
T3 construct: expressed in transfected cells; host or cells: BHK
Briefly: Receptor binding, BHK cells stably transfected with rat Y4 receptor. To be noted: read-out: Affinity IC50, ratY4/BHK. How it is done: BHK cells stably transfected with rat Y4 receptor: Cultivation and receptor binding was performed as described for hY1/BHK with exception of incubation medium (25 mM HEPES, 2.5 mM CaCl2, 1.0 mM MgCl2, pH 7.4) and final concentration of cell suspension 5×10^5 cells/ml. 24 h before receptor binding assay 1.0 mM IPTG was added for induction of expression. Incubation time for binding assay: 2 h.

T3 sequence (Q63447 whole entry): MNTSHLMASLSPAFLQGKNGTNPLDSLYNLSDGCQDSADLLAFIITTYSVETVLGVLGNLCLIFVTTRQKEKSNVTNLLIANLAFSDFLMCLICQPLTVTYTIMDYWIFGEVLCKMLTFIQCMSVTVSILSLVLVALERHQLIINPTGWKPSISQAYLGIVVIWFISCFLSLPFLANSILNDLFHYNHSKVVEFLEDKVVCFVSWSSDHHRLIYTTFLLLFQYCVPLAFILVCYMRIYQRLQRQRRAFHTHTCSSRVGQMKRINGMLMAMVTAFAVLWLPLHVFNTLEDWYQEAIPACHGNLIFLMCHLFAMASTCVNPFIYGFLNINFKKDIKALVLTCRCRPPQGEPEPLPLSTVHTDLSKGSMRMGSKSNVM

With `N=C(N)NCCC[C@@H](NC(=O)C(c1ccccc1)c1ccccc1)C(=O)NCc1ccc(CNC(N)=O)cc1` [Compound C], the IC50 on humanY2 is above 10 µM; on human Y2 receptor it was above 1 µM; on rat Y4 receptor it was above 10 µM.

These data come from patent US6114390A, “Amino acid derivatives, pharmaceutical compositions containing these compounds and processes for preparing them” (Karl Thomae GmbH, priority 1997, dated 2000).
